# From US10597388B2, “Pyridazinone herbicides” (FMC CORPORATION, priority 2014, dated 2020)
# Key:
# Assay type in all cases: in vivo
# kochia (Kochia scoparia) = assay: Test C greenhouse herbicide test, postemergence
# Procedure, shortened: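 Seedlings are raised in pots of peat moss–vermiculite medium with starter nutrients, then receive postemergence test chemical at the 1- to 4-leaf stage. They are kept in the greenhouse 13 to 15 d and scored visually versus controls, 0 meaning no effect and 100 complete control.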
# [1] = system: foxtail, giant (giant foxtail, Setaria faberii); assay: Test C greenhouse herbicide test, pre- and postemergence
# Procedure, shortened: (§1)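 Greenhouse pots; pre-em on seeded loam:sand blend, post-em on 2–18 cm plants (1–4 leaf) in sphagnum peat/vermiculite medium. Formulation: non-phytotoxic solvent + surfactant. Read-out: visual % control (0–100) vs controls at 13–15 d.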
# [2] = system: nutsedge, yellow (yellow nutsedge, Cyperus esculentus); assay: as above
# Procedure, shortened: as §1
# [3] = system: ragweed (common ragweed, Ambrosia elatior); assay: as above
# Procedure, shortened: as §1
# [4] = system: wheat (winter wheat, Triticum aestivum); assay: as above
# Procedure, shortened: as §1
# [5] = system: oilseed rape (Brassica napus); assay: as above
# Procedure, shortened: as §1
# [6] = system: lambsquarters (Chenopodium album); assay: as above
# Procedure, shortened: as §1
# soybean (Glycine max) = assay: as above
# Procedure, shortened: as §1
# [7] = system: morningglory (Ipomoea coccinea); assay: as above
# Procedure, shortened: as §1
# [8] = system: pigweed (Amaranthus retroflexus); assay: as above
# Procedure, shortened: as §1
# [9] = system: blackgrass (Alopecurus myosuroides); assay: as above
# Procedure, shortened: as §1
# [10] = system: ryegrass, Italian (Italian ryegrass, Lolium multiflorum); assay: as above
# Procedure, shortened: as §1
# [11] = system: crabgrass, large (large crabgrass, Digitaria sanguinalis); assay: as above
# Procedure, shortened: as §1
# corn (Zea mays) = assay: as above
# Procedure, shortened: as §1
# [12] = system: waterhemp (common waterhemp, Amaranthus rudis); assay: as above
# Procedure, shortened: as §1
# [13] = system: johnsongrass (Sorghum halepense); assay: as above
# Procedure, shortened: as §1
# [14] = Postemergence, 31 g ai/ha, 0 to 100 scale (0 no effect, 100 complete control)
# [15] = Postemergence, 125 g ai/ha, scale 0 to 100, 0 is no effect, 100 is complete control
# [16] = Postemergence, 250 g ai/ha, scale 0 to 100, 0 no effect, 100 complete control, 13 to 15 d
# [17] = postemergence, 62 g ai/ha, scale 0 to 100, 0 no effect, 100 complete control
# [18] = Preemergence, 31 g ai/ha, scale 0 to 100, 0 is no effect, 100 is complete control
# [19] = Preemergence, 62 g ai/ha, scale 0 to 100, 0 is no effect, 100 is complete control
# [20] = Preemergence, 125 g ai/ha, scale 0 to 100, 0 is no effect, 100 is complete control
# [21] = Preemergence, 250 g ai/ha, scale 0 to 100 (0 no effect, 100 complete control)
compound,measurement,setting,value
CCOC(=O)Oc1c(C)nn(C)c(=O)c1-c1c(CC)ccc2ccccc12 [Compound 37],Kochia plant response rating,kochia (Kochia scoparia); [14],0
same,"Plant response rating, Kochia",kochia (Kochia scoparia); [15],5
same,"Plant response rating, Kochia",kochia (Kochia scoparia); [16],80
same,Kochia plant response rating,kochia (Kochia scoparia); [17],0
same,"Foxtail, Giant plant response rating",[1]; [14],25
same,"Plant response rating, Foxtail, Giant",[1]; [15],60
same,"Plant response rating, Foxtail, Giant",[1]; [16],85
same,"Plant response rating, Foxtail, Giant",[1]; [18],65
same,"Plant response rating, Foxtail, Giant",[1]; [19],75
same,"Plant response rating, Foxtail, Giant",[1]; [20],85
same,"Foxtail, Giant plant response rating",[1]; [21],85
same,"Foxtail, Giant plant response rating",[1]; [17],35
same,"Nutsedge, Yellow plant response rating",[2]; [14],20
same,"Plant response rating, Nutsedge, Yellow",[2]; [15],65
same,"Plant response rating, Nutsedge, Yellow",[2]; [16],60
same,"Plant response rating, Nutsedge, Yellow",[2]; [18],0
same,"Plant response rating, Nutsedge, Yellow",[2]; [19],20
same,"Plant response rating, Nutsedge, Yellow",[2]; [20],40
same,"Nutsedge, Yellow plant response rating",[2]; [21],60
same,"Nutsedge, Yellow plant response rating",[2]; [17],40
same,Ragweed plant response rating,[3]; [14],90
same,"Plant response rating, Ragweed",[3]; [15],98
same,"Plant response rating, Ragweed",[3]; [16],98
same,"Plant response rating, Ragweed",[3]; [18],85
same,"Plant response rating, Ragweed",[3]; [19],90
same,"Plant response rating, Ragweed",[3]; [20],95
same,Ragweed plant response rating,[3]; [21],98
same,Ragweed plant response rating,[3]; [17],95
same,Wheat plant response rating,[4]; [14],30
same,"Plant response rating, Wheat",[4]; [15],30
same,"Plant response rating, Wheat",[4]; [16],35
same,"Plant response rating, Wheat",[4]; [18],0
same,"Plant response rating, Wheat",[4]; [19],0
same,"Plant response rating, Wheat",[4]; [20],5
same,Wheat plant response rating,[4]; [21],45
same,Wheat plant response rating,[4]; [17],0
same,Oilseed Rape plant response rating,[5]; [14],40
same,"Plant response rating, Oilseed Rape",[5]; [15],40
same,"Plant response rating, Oilseed Rape",[5]; [16],50
same,"Plant response rating, Oilseed Rape",[5]; [18],0
same,"Plant response rating, Oilseed Rape",[5]; [19],40
same,"Plant response rating, Oilseed Rape",[5]; [20],60
same,Oilseed Rape plant response rating,[5]; [21],90
same,Oilseed Rape plant response rating,[5]; [17],20
same,Lambsquarters plant response rating,[6]; [14],90
same,"Plant response rating, Lambsquarters",[6]; [15],95
same,"Plant response rating, Lambsquarters",[6]; [16],100
same,"Plant response rating, Lambsquarters",[6]; [18],85
same,"Plant response rating, Lambsquarters",[6]; [19],60
same,"Plant response rating, Lambsquarters",[6]; [20],85
same,Lambsquarters plant response rating,[6]; [21],90
same,Lambsquarters plant response rating,[6]; [17],90
same,Soybean plant response rating,soybean (Glycine max); [14],10
same,"Plant response rating, Soybean",soybean (Glycine max); [15],15
same,"Plant response rating, Soybean",soybean (Glycine max); [16],25
same,"Plant response rating, Soybean",soybean (Glycine max); [18],0
same,"Plant response rating, Soybean",soybean (Glycine max); [19],30
same,"Plant response rating, Soybean",soybean (Glycine max); [20],20
same,Soybean plant response rating,soybean (Glycine max); [21],65
same,Soybean plant response rating,soybean (Glycine max); [17],5
same,Morningglory plant response rating,[7]; [14],90
same,"Plant response rating, Morningglory",[7]; [15],98
same,"Plant response rating, Morningglory",[7]; [16],98
same,"Plant response rating, Morningglory",[7]; [18],70
same,"Plant response rating, Morningglory",[7]; [19],80
same,"Plant response rating, Morningglory",[7]; [20],90
same,Morningglory plant response rating,[7]; [21],98
same,Morningglory plant response rating,[7]; [17],95
same,Pigweed plant response rating,[8]; [14],85
same,"Plant response rating, Pigweed",[8]; [15],95
same,"Plant response rating, Pigweed",[8]; [16],95
same,"Plant response rating, Pigweed",[8]; [18],98
same,"Plant response rating, Pigweed",[8]; [19],98
same,"Plant response rating, Pigweed",[8]; [20],100
same,Pigweed plant response rating,[8]; [21],100
same,Pigweed plant response rating,[8]; [17],100
same,Blackgrass plant response rating,[9]; [14],35
same,"Plant response rating, Blackgrass",[9]; [15],80
same,"Plant response rating, Blackgrass",[9]; [16],85
same,"Plant response rating, Blackgrass",[9]; [18],10
same,"Plant response rating, Blackgrass",[9]; [19],30
same,"Plant response rating, Blackgrass",[9]; [20],90
same,Blackgrass plant response rating,[9]; [21],90
same,Blackgrass plant response rating,[9]; [17],40
same,"Ryegrass, Italian plant response rating",[10]; [14],80
same,"Plant response rating, Ryegrass, Italian",[10]; [15],90
same,"Plant response rating, Ryegrass, Italian",[10]; [16],90
same,"Plant response rating, Ryegrass, Italian",[10]; [18],50
same,"Plant response rating, Ryegrass, Italian",[10]; [19],85
same,"Plant response rating, Ryegrass, Italian",[10]; [20],90
same,"Ryegrass, Italian plant response rating",[10]; [21],95
same,"Ryegrass, Italian plant response rating",[10]; [17],85
same,"Crabgrass, Large plant response rating",[11]; [14],10
same,"Plant response rating, Crabgrass, Large",[11]; [15],25
same,"Plant response rating, Crabgrass, Large",[11]; [16],35
same,"Plant response rating, Crabgrass, Large",[11]; [18],5
same,"Plant response rating, Crabgrass, Large",[11]; [19],5
same,"Plant response rating, Crabgrass, Large",[11]; [20],20
same,"Crabgrass, Large plant response rating",[11]; [21],25
same,"Crabgrass, Large plant response rating",[11]; [17],20
same,Corn plant response rating,corn (Zea mays); [14],0
same,"Plant response rating, Corn",corn (Zea mays); [15],20
same,"Plant response rating, Corn",corn (Zea mays); [16],30
same,"Plant response rating, Corn",corn (Zea mays); [18],0
same,"Plant response rating, Corn",corn (Zea mays); [19],0
same,"Plant response rating, Corn",corn (Zea mays); [20],0
same,Corn plant response rating,corn (Zea mays); [21],20
same,Corn plant response rating,corn (Zea mays); [17],10
same,Waterhemp plant response rating,[12]; [14],85
same,"Plant response rating, Waterhemp",[12]; [15],80
same,"Plant response rating, Waterhemp",[12]; [16],98
same,"Plant response rating, Waterhemp",[12]; [18],90
same,"Plant response rating, Waterhemp",[12]; [19],95
same,"Plant response rating, Waterhemp",[12]; [20],95
same,Waterhemp plant response rating,[12]; [21],100
same,Waterhemp plant response rating,[12]; [17],80
same,Johnsongrass plant response rating,[13]; [14],0
same,"Plant response rating, Johnsongrass",[13]; [15],5
same,"Plant response rating, Johnsongrass",[13]; [16],35
same,"Plant response rating, Johnsongrass",[13]; [18],0
same,"Plant response rating, Johnsongrass",[13]; [19],0
same,"Plant response rating, Johnsongrass",[13]; [20],5
same,Johnsongrass plant response rating,[13]; [21],0
same,Johnsongrass plant response rating,[13]; [17],5
Cc1nn(C)c(=O)c(-c2c(C)sc3ccccc23)c1O [Compound 65],Kochia plant response rating,kochia (Kochia scoparia); [14],90
same,"Plant response rating, Kochia",kochia (Kochia scoparia); [15],90
same,"Plant response rating, Kochia",kochia (Kochia scoparia); [16],100
same,Kochia plant response rating,kochia (Kochia scoparia); [17],90
same,"Foxtail, Giant plant response rating",[1]; [14],10
same,"Plant response rating, Foxtail, Giant",[1]; [15],35
same,"Plant response rating, Foxtail, Giant",[1]; [16],60
same,"Foxtail, Giant plant response rating",[1]; [17],20
same,"Nutsedge, Yellow plant response rating",[2]; [14],25
same,"Plant response rating, Nutsedge, Yellow",[2]; [15],60
same,"Plant response rating, Nutsedge, Yellow",[2]; [16],65
same,"Nutsedge, Yellow plant response rating",[2]; [17],50
same,Ragweed plant response rating,[3]; [14],55
same,"Plant response rating, Ragweed",[3]; [15],80
same,"Plant response rating, Ragweed",[3]; [16],90
same,Ragweed plant response rating,[3]; [17],85
same,Wheat plant response rating,[4]; [14],0
same,"Plant response rating, Wheat",[4]; [15],0
same,"Plant response rating, Wheat",[4]; [16],0
same,Wheat plant response rating,[4]; [17],0
same,Oilseed Rape plant response rating,[5]; [14],0
same,"Plant response rating, Oilseed Rape",[5]; [15],0
same,"Plant response rating, Oilseed Rape",[5]; [16],5
same,Oilseed Rape plant response rating,[5]; [17],0
same,Lambsquarters plant response rating,[6]; [14],90
same,"Plant response rating, Lambsquarters",[6]; [15],95
same,"Plant response rating, Lambsquarters",[6]; [16],100
same,Lambsquarters plant response rating,[6]; [17],95
same,Soybean plant response rating,soybean (Glycine max); [14],5
same,"Plant response rating, Soybean",soybean (Glycine max); [15],5
same,"Plant response rating, Soybean",soybean (Glycine max); [16],10
same,Soybean plant response rating,soybean (Glycine max); [17],5
same,Morningglory plant response rating,[7]; [14],75
same,"Plant response rating, Morningglory",[7]; [15],95
same,"Plant response rating, Morningglory",[7]; [16],95
same,Morningglory plant response rating,[7]; [17],85
same,Pigweed plant response rating,[8]; [14],90
same,"Plant response rating, Pigweed",[8]; [15],98
same,"Plant response rating, Pigweed",[8]; [16],100
same,Pigweed plant response rating,[8]; [17],90
same,Blackgrass plant response rating,[9]; [14],5
same,"Plant response rating, Blackgrass",[9]; [15],10
same,"Plant response rating, Blackgrass",[9]; [16],40
same,Blackgrass plant response rating,[9]; [17],5
same,"Ryegrass, Italian plant response rating",[10]; [14],65
same,"Plant response rating, Ryegrass, Italian",[10]; [15],85
same,"Plant response rating, Ryegrass, Italian",[10]; [16],85
same,"Ryegrass, Italian plant response rating",[10]; [17],80
same,"Crabgrass, Large plant response rating",[11]; [14],5
same,"Plant response rating, Crabgrass, Large",[11]; [15],20
same,"Plant response rating, Crabgrass, Large",[11]; [16],25
same,"Crabgrass, Large plant response rating",[11]; [17],20
same,Corn plant response rating,corn (Zea mays); [14],5
same,"Plant response rating, Corn",corn (Zea mays); [15],5
same,"Plant response rating, Corn",corn (Zea mays); [16],5
same,Corn plant response rating,corn (Zea mays); [17],5
same,Waterhemp plant response rating,[12]; [14],60
same,"Plant response rating, Waterhemp",[12]; [15],75
same,"Plant response rating, Waterhemp",[12]; [16],85
same,Waterhemp plant response rating,[12]; [17],75
same,Johnsongrass plant response rating,[13]; [14],5
same,"Plant response rating, Johnsongrass",[13]; [15],5
same,"Plant response rating, Johnsongrass",[13]; [16],5
same,Johnsongrass plant response rating,[13]; [17],5
